The source of these data is patent publication US11154519B2, “Inhibitors and their uses” (MEDICAL RESEARCH COUNCIL, priority 2015, dated 2021).

Assay [1] has as its target T1, PPP1R15A-PP1 complex (Homo sapiens, UniProt O75807).
T1 construct: cDNAs encoding amino acids 325-636 of PPP1R15A and 340-698 of PPP1R15B were His-tagged and cloned into pMAL-c5x; made in house; host or cells: R15A: E. coli BL21-Gold (pMAL-c5x); PP1γ: Sf9 insect cells (baculovirus, pDW464)
As to the kind of experiment: SPR steady-state binding to R15A-PP1 holophosphatase. Here is the method: (§1) PPP1R15A^325-636 and PPP1R15B^340-698 were expressed and purified as follows: the cDNAs encoding amino acids 325-636 of PPP1R15A and 340-698 of PPP1R15B were His-tagged and cloned into pMAL-c5x. Recombinant PPP1R15A/B were expressed in BL21-Gold cells and purified by affinity chromatography on a HisTrap HP column (GE Healthcare), followed by a MBPTrap HP column (GE Healthcare). The proteins were analyzed on BOLT SDS-PAGE 4-12% Bis-Tris gels (Life Technologies) stained with SimplyBlue SafeStain (Life Technologies). cDNA encoding for human PP1γ was cloned into the baculovirus transfer vector pDW464 to add a biotin acceptor peptide (BAP). The vector also encodes for the E. coli biotin holoenzyme synthetase (BirA), so that BAP-tagged proteins can be biotinylated in vivo in Spodoptere frugiperda (Sf9) insect cells (Duffy et al., Anal. Biochem., 262, 122-128, 1998). The Bac-to-Bac baculovirus expression system (Life Technologies) was used to generate the recombinant bacmid DNA and Sf9 insect cells were used to amplify the viral stocks Cultures were harvested by centrifuging at 1,200 g for 15 minutes, cell pellets were resuspended in lysis buffer (50 mM Tris pH 7.4, 150 mM NaCl, 0.2% Triton, 5% Glycerol, 1 PiC tablet (Roche) per 50 ml and 0.2 mM PMSF) and followed by gentle sonication. The protein was first purified on a 5 ml HiTrap Q HP column (GE Healthcare) followed by a HiLoad 16/600 Superdex 200 column (GE Healthcare). The positive fractions confirmed by SDS-PAGE and western blot were pooled, concentrate to ˜1 μM and stored at −80° C.
(§2) A Biacore T200 (GE Healthcare) system was used for all experiments and biotinylated PP1 was captured using a Sensor Chip SA (GE Healthcare, catalog no BR-1005-31). The streptavidin coated surface was activated by 1 min injection with a solution of 50 mM NaOH and 1 M NaCl. Biotin-PP1 was diluted in the running buffer (50 mM Tris pH 7.5, 100 mM NaCl, 0.1 mM EGTA, 1 mM MnCl2, 0.05% Tween 20) and injected at approximately 300 nM concentration directly to streptavidin coated surface for 100 sec or to reach immobilization level of biotin-PP1 corresponding to ˜7000 RU. A blank immobilization was performed for one of the SA sensor chip surface to use as a reference.
(§3) With minor deviations, the same procedure and conditions were used in all binding experiments. Small molecules were stored as 50 mM stock solutions in 100% DMSO. Prior to determining binding constants, serial dilutions of either 12 or 8 concentrations of the compounds were prepared in the running buffer in a 96-well plate. Prior to each compound dilution series the regulatory subunit, R15A or R15B, was diluted to […] in the running buffer and captured on the biotin-PP1 surface, to form the holophosphatase complex on the sensor chip surface. Then, without regenerating the surface, the compound dilution series was injected onto the surface of the chip Sensorgrams were analyzed using the Biacore T200 evaluation software and the binding constants determined based on a steady-state model. Kinetic experiments are carried out using different concentrations of the compound and their respective equilibrium binding levels determined.
(§4) Surface Plasmon Resonance (SPR) was used to measure the binding affinity of compounds to the PPP1R15A/B-PP1 phosphatase complex. Biotin acceptor peptide (BAP) was fused to the N-terminus of PP1γ, which enables the biotinylation of the BAP-tagged protein in Sf9 insect cells. After purification the BAP-PP1γ protein was captured on a streptavidin sensor chip (SA-chip, GE healthcare) to a response level of ˜5.000 RU. Using controlled biotinylation enables orientated and uniform immobilization on the sensor chip surface. The PP1γ was then used to capture PPP1R15A/B and form a holophosphatase complex on the surface of the streptavidin chip. This complex can then be used to test binding of compounds. 10 μM PPP1R15A/B protein concentration was used to form the holophosphatase complex during a 80 s injection. […]

Assay [2] has as its target T2, PPP1R15B-PP1 (Homo sapiens, UniProt Q5SWA1).
T2 construct: cDNAs encoding amino acids 325-636 of PPP1R15A and 340-698 of PPP1R15B were His-tagged and cloned into pMAL-c5x; made in house; host or cells: R15B: E. coli BL21-Gold (pMAL-c5x); PP1γ: Sf9 insect cells (baculovirus, pDW464)
As to the kind of experiment: SPR steady-state binding to R15B-PP1 holophosphatase. Here is the method: as §1, §2, §3, §4

Assay [3] deals with T3, PP1 (Homo sapiens, UniProt P36873).
T3 construct: made in house; host or cells: Sf9 insect cells (baculovirus, pDW464)
As to the kind of experiment: SPR binding to PP1 alone. As to conditions: SPR steady-state, bio-PP1c surface. For orientation: SPR reads the build-up and loss of mass on a sensor chip optically.

Assay [4] concerns protein synthesis. As to the kind of experiment: Assessment of translation rates (35S-methionine labelling). The format is cell-based. As to conditions: for Effect on translation: 35S-methionine labelling of cells; for Effect on translation ⇒ Inhibits: target(s) concluded to be inhibited; for protein synthesis rates: unstressed cells, 10 μM, FIG. 12. The method, then: Cells (90,000 cells/ml) were plated in 12-well plates, treated as indicated, labelled with 100 μCi/mI 35S-methionine (Hartmann Analytic) for 10 minutes at 37° C., washed with ice-cold PBS and lysed in 120 μl Laemmli Buffer. Lysates were boiled at 95° C. for 5 minutes, sonicated and resolved on 4-12% Bolt Bis-Tris Plus Gels (Thermo Fisher Scientific). Gels were then stained with InstantBlue (Expedeon) and analyzed by phosphorimaging and quantified using ImageJ.
By monitoring translation rates as described above, the activities of R15A, R15B and R15A/B inhibitors can be defined as follows (also shown in FIG. 12). An R15A inhibitor has no effect on translation in unstressed cells but prolongs translation attenuation following stress. A selective R15B inhibitor transiently attenuate protein synthesis because R15A compensates for the inhibition of R15B.

Where [5] appears, read: SPR steady-state, MBP-R15A325-636-His captured on bio-PP1c, 10° C., read-out: R15A (KD).
The mark [6] stands for this setting: SPR steady-state, MBP-R15B340-698-His captured on bio-PP1c, 10° C., read-out: R15B (KD).

Like-named read-outs stand apart in the source and are kept apart here.

T1 sequence (O75807 325-636): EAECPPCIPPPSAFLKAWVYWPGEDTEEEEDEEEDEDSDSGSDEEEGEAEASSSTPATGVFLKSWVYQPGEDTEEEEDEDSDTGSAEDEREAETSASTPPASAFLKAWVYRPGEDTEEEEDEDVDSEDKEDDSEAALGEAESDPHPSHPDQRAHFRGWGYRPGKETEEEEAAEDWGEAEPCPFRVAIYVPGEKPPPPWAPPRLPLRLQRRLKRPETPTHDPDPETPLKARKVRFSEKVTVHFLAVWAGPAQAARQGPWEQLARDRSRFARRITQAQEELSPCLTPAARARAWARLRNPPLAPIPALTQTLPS
T1 sequence (P36873 whole entry partner, the tested form may be a part): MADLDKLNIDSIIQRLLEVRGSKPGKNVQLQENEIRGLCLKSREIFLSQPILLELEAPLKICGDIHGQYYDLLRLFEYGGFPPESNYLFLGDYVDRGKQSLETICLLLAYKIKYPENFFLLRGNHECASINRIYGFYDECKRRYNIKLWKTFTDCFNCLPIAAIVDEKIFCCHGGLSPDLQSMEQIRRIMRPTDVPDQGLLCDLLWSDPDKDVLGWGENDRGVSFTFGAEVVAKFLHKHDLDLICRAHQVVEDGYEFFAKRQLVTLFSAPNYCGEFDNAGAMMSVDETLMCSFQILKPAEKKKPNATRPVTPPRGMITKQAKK
T2 sequence (Q5SWA1 340-698): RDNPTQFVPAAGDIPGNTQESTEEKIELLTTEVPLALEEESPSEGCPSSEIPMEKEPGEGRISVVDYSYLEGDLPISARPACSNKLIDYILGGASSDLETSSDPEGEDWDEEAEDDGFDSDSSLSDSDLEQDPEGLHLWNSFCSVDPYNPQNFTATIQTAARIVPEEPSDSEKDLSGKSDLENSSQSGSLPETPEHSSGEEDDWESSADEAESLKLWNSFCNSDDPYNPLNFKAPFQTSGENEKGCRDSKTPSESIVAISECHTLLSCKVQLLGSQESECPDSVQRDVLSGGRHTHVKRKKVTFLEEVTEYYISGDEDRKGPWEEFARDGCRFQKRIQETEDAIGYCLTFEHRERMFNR
T2 sequence (P36873 whole entry partner, the tested form may be a part): as the sequence (P36873 whole entry partner, the tested form may be a part) above
T3 sequence (P36873 whole entry): as the sequence (P36873 whole entry partner, the tested form may be a part) above

For `[H]/N=C(\N)NN=Cc1ccc(Cl)cc1` [Compound 1, (E)-2-((4-chlorophenyl)methylene)hydrazine-1-carboximidamide], the Kd in assay [1] (setting [5]) was 8.32 ± 0.14 µM; in assay [2] (setting [6]), 7.33 ± 1.79 µM; in assay [3] it was 6.28 µM.
For `N=C(N)N/N=C/c1cc(Cl)c(Cl)c(Cl)c1` [Compound 3, (E)-2-(3,4,5-trichlorobenzylidene)hydrazine-1-carboximidamide], the Kd was 4.49 ± 1.47 µM in assay [1] (setting [5]), 0.149 µM in assay [2] (setting [6]) and 10.3 µM in assay [3]. Besides, in assay [4], the Effect on translation entry is reported as “Persistent”.
Regarding `[H]/N=C(\N)NN=Cc1cc(Cl)c(F)c(Cl)c1` [Compound 5, (E)-2-(3,5-dichloro-4-fluorobenzylidene)hydrazine-1-carboximidamide], the Kd came to 8.45 ± 0.41 µM in assay [1] (setting [5]), 2.67 ± 0.4 µM in assay [2] (setting [6]) and 30.6 µM in assay [3].
On to `[H]/N=C(\N)NN=Cc1ccc(Cl)c(Cl)c1Cl` [Compound 6, (E)-2-(2,3,4-trichlorobenzylidene)hydrazine-1-carboximidamide], for which the Kd in assay [1] (setting [5]) stood at 5.43 ± 1.1 µM; in assay [2] (setting [6]) it was 9.09 ± 1.37 µM. The Effect on translation result in assay [4] is “Persistent”.
Consider `[H]/N=C(\N)NN=Cc1cc(F)c(Cl)cc1Cl` [Compound 7, (E)-2-(2,4-dichloro-5-fluorobenzylidene)hydrazine-1-carboximidamide], for which the Kd amounted to 10.2 ± 2.57 µM in assay [1] (setting [5]), 4.34 ± 2.35 µM in assay [2] (setting [6]) and 13 µM in assay [3]. Also, the “Effect on translation ⇒ Inhibits” value in assay [4] is given as “R15AB”.
Turning to `[H]/N=C(\N)NN=Cc1cc(Cl)cc(Cl)c1Cl` [Compound 10, (E)-2-(2,3,5-trichlorobenzylidene)hydrazine-1-carboximidamide], the values for the Kd in assay [1] (setting [5]) and in assay [2] (setting [6]) were 0.391 ± 0.14 µM and 0.44 ± 0.09 µM, respectively. In addition, in assay [4], the Effect on translation entry is listed as “Persistent”. The protein synthesis rates entry in assay [4] is given as “persistently inhibits protein synthesis”.
Consider `[H]/N=C(\N)NN=Cc1ccc(Cl)c(Cl)c1` [Compound 11, (E)-2-(3,4-dichlorobenzylidene)hydrazine-1-carboximidamide], for which the values for the Kd in assay [1] (setting [5]) and in assay [2] (setting [6]) were 16.2 ± 2.1 µM and 13.4 ± 0.47 µM, respectively. Moreover, the “Effect on translation ⇒ Inhibits” value in assay [4] is reported as “R15AB”.
Consider `[H]/N=C(\N)NN=Cc1ccc(Cl)c(F)c1Cl` [Compound 13, (E)-2-(2,4-dichloro-3-fluorobenzylidene)hydrazine-1-carboximidamide], for which the Kd in assay [1] (setting [5]) was found to be 4.62 ± 0.59 µM. The Kd in assay [2] (setting [6]) came to 6.68 ± 2.34 µM. For the same molecule, in assay [4], the Effect on translation entry was “Persistent” and the “Effect on translation ⇒ Inhibits” value is recorded as “R15AB”.
With `[H]/N=C(\N)NN=Cc1ccc(F)c(Cl)c1Cl` [Compound 14, (E)-2-(2,3-dichloro-4-fluorobenzylidene)hydrazine-1-carboximidamide], the results for the Kd in assay [1] (setting [5]) and in assay [2] (setting [6]) were 5.45 ± 1.48 µM and 5.43 ± 1.26 µM, respectively. Further, the Effect on translation entry in assay [4] is on record as “Persistent”.
Regarding `[H]/N=C(\N)NN=Cc1ccc(F)c(Cl)c1` [Compound 15, (E)-2-(3-chloro-4-fluorobenzylidene)hydrazine-1-carboximidamide], the Kd was 11.2 µM in assay [1] (setting [5]), 7.68 ± 2.18 µM in assay [2] (setting [6]) and 6.14 ± 0.28 µM in assay [3].
For the molecule `[H]/N=C(\N)NN=Cc1cccc(Cl)c1Cl` [Compound 16, (E)-2-(2,3-dichlorobenzylidene)hydrazine-1-carboximidamide], the Kd in assay [1] (setting [5]) amounted to 1.05 ± 0.013 µM; in assay [1] (SPR, FIG. 1, read-out: KD for PPP1R15A-PP1) it was 1 µM; in assay [2] (SPR, FIG. 1, read-out: KD for PPP1R15B-PP1) it was 0.035 µM. The Effect on translation entry in assay [4] is “Transient”. In addition, the protein synthesis rates result in assay [4] is reported as “transiently inhibits protein synthesis in unstressed cells”.
For `N=C(N)N/N=C/c1cc(Cl)c(Cl)cc1F` [Compound 18, (E)-2-(4,5-dichloro-2-fluorobenzylidene)hydrazine-1-carboximidamide], the Kd in assay [1] (setting [5]) came to 10.2 ± 1.62 µM; in assay [2] (setting [6]) it was 4.85 ± 0.14 µM; in assay [3], 10.2 ± 0.14 µM.
On to `[H]/N=C(\N)NN=Cc1cc(F)ccc1Cl` [Compound 20, (E)-2-(2-chloro-5-fluorobenzylidene)hydrazine-1-carboximidamide], for which the Kd is 5.67 ± 0.72 µM in assay [1] (setting [5]) and 5.17 ± 0.69 µM in assay [2] (setting [6]). The “Effect on translation ⇒ Inhibits” value in assay [4] is “R15AB”.
With `[H]/N=C(\N)NN=Cc1cccnc1Cl` [Compound 21, (E)-2-((2-chloropyridin-3-yl)methylene)hydrazine-1-carboximidamide], the Kd stood at 0.832 µM in assay [1] (setting [5]) and 0.537 µM in assay [2] (setting [6]). Moreover, the Effect on translation entry in assay [4] is “Transient”.
In the case of `[H]/N=C(\N)NN=Cc1ccc(Cl)nc1Cl` [Compound 22, (E)-2-((2,6-dichloropyridin-3-yl)methylene)hydrazine-1-carboximidamide], the results for the Kd in assay [1] (setting [5]) and in assay [2] (setting [6]) were 7.62 µM and 12.3 µM, respectively. For the same molecule, the “Effect on translation ⇒ Inhibits” value in assay [4] is given as “R15AB”.
On the same counts, the results for `[H]/N=C(\N)NN=Cc1cccc(F)c1` [Compound 23, (E)-2-(3-fluorobenzylidene)hydrazine-1-carboximidamide] are 1.42 µM, 1.05 ± 0.32 µM and “R15AB”.
On the same counts, the results for `[H]/N=C(\N)NN=Cc1cc(Cl)ccc1Cl` [Compound 26, (E)-2-(2,5-dichlorobenzylidene)hydrazine-1-carboximidamide] are 23.1 ± 0.9 µM, 30 ± 2.3 µM and “R15AB”.
For the molecule `[H]/N=C(\N)NN=Cc1cc(F)cc(F)c1Cl` [Compound 29, (E)-2-(2-chloro-3,5-difluorobenzylidene)hydrazine-1-carboximidamide], the Kd was 7.87 ± 1.48 µM in assay [1] (setting [5]) and 4.06 µM in assay [2] (setting [6]). Moreover, in assay [4], the “Effect on translation ⇒ Inhibits” value is “R15AB”.
For `[H]/N=C(\N)NN=Cc1cc(Cl)cc(Cl)c1` [Compound 34, (E)-2-(3,5-dichlorobenzylidene)hydrazine-1-carboximidamide], the Kd in assay [1] (setting [5]) stood at 17.2 ± 1.9 µM; in assay [2] (setting [6]), 31.3 ± 2 µM. The “Effect on translation ⇒ Inhibits” value in assay [4] is listed as “R15AB”.

One may read the Kd as the constant that tells how readily two partners part at equilibrium.
